{"source": "patent US20080155704A1", "about": "“Methods and Compositions for Determining in vivo Activity of BiP” (King's College London, priority 2006, published 2008)", "key": {"[1]": {"system": "IL-8 gene", "assay": "Affymetrix gene array of BiP treated monocytes", "assay_type": "cell-based, human", "details": "monocytes cultured with BiP for 24 h compared with unstimulated monocytes", "description": "This was confirmed in two Affymetrix™ gene arrays and also in an inflammatory cytokine gene array.\nThe transcription profiles of the BiP stimulated and unstimulated MO were generated using the Human GeneChip U95Av2 which simultaneously measures 12500 gene transcripts. To identify genes differentially expressed in the presence of BiP, comparisons were made between the transcription profiles obtained from the MO using the analysis software dChip version 1.2 (32)."}, "[2]": {"system": "monocyte-derived dendritic cells", "assay": "Surface expression of phenotypic markers on monocyte-derived dendritic cells (immunofluorescence, flow cytometry)", "assay_type": "cell-based, human", "description": "Purified monocytes (>85% monocytes)(1.5.10^6/flask)(Corning Costar, High Wycombe, UK) were incubated in 5 ml of tissue culture medium (TCM)(RPMI 1640 medium (Sigma, Poole, UK) supplemented with 10% heat-inactivated foetal calf serum (FCS)(Life Technologies, Paisley, UK). iDC were generated using granulocyte macrophage—colony stimulating factor (GM-CSF) (1000 U/ml)(Novartis Research Institute, Vienna, Austria) and IL-4 (500 U/ml) (R&D Systems, Oxford, UK). Monocytes were cultured for 3 or 7 days with cytokines, either alone or in the presence of rhuBiP (20 μg/ml). Mature DC were generated by addition of 500 ng/ml lipopolysaccharide (LPS) for the final 2 days of culture.\nImmunofluorescent staining was performed as follows when required. Cells were suspended in immunofluorescent buffer (IF) (PBS/0.1% BSA/0.05% azide) washed and incubated for 10 mins on ice with normal human serum. After washing twice in IF buffer, saturating concentrations of fluorescein isothiocyanate (FITC)-, phycoerythrin (PE) or peridium chlorophyll (Per-CP)-conjugated monoclonal antibodies (mAb) recognizing human CD14, CD86, CD80, HLA-DR, CD11c, CD1a, CD83, CD40 and CD85j, (all from Becton Dickinson/PharMingen, Oxford, UK) were added singly or in combination, as stated in the text, to cells for 20 mins on ice. Cells were then washed twice in IF buffer and analysed. Isotype controls, IgG1 and IgG2a (Becton Dickinson, Oxford, UK) were used in parallel.\nPurified monocytes were cultured with and without BiP for three days (early DC/early DC(BiP)) or 7 days with GM-CSF and IL-4 (iDC/iDC(BiP)) or for 7 days with additional LPS for the final 2 days (mDC/mDC(BiP)). *BiP [20 μg/ml] was added at the same time as the cytokines. (a) and (b): Results are expressed as mean and standard error (mean ±SE) of the % positive cells from 4 or 7 different experiments, respectively.\nTable A: Surface expression of phenotypic markers: Purified monocytes were differentiated into immature dendritic cells (iDC) with GM-CSF and IL-4 for 7d in the presence or absence of BiP (20 μg/ml). LPS (500 ng/ml) was added for the final 2d to give mature DC(mDC). Cell surface expression of molecules was measured by immunofluorescence and flow cytometry. Results are expressed as mean and standard deviation (mean ±SD) of the mean fluorescent intensity (MFI) from 7 different experiments:\nPurified MO (>85% monocytes)(1.5.106/flask)(Corning Costar, High Wycombe, UK) were incubated in 5 ml of tissue culture medium (TCM)(RPMI 1640 medium (Sigma, Poole, UK) supplemented with 10% heat-inactivated foetal calf serum (FCS)(Life Technologies, Paisley, UK). iDC were generated by culturing MO with granulocyte macrophage-colony stimulating factor (GM-CSF) (1000 U/ml)(Novartis Research Institute, Vienna, Austria) and IL-4 (500 U/ml) (R&D Systems, Oxford, UK) for 3 or 7d, either alone or in the presence of rhuBiP (20 μg/ml). Cytokines and BiP were replenished every 2d. Mature DC were generated by addition of LPS (500 ng/ml) for the final 2d of a 7d culture.\nImmunofluorescent staining was performed, as described previously (39), on DC harvested at day 7, T cells after 4 days co-culture with DC. Saturating concentrations of fluorescein isothiocyanate (FITC)-, phycoerythrin (PE) or peridium chlorophyll (Per-CP)-conjugated mAb were added recognizing CD14, CD86, CD80, HLA-DR, CD11c, CD1a, CD83, CD85j, IL-10 receptor; purity of the negatively selected MO and T cells was checked using CD3, CD4, CD14, CD20 and CD57 (all from Becton Dickinson/PharMingen (BD), Oxford, UK). Intracellular staining was carried out following fixation of cells with 1% paraformaldehyde for 5 minutes. Cells were then washed with immunofluorescence buffer (PBS/0.1% BSA/0.05% azide) containing 0.3% saponin. 0.3% saponin was then present in all solutions thereafter. CD152/CTLA-4 (BD, Oxford UK) and IDO (Santa Cruz, Autogen Bioclear, UK) were intracellular stains. Isotype controls, IgG1 and IgG2a (BD, Oxford, UK) were used in parallel. […]"}, "[3]": {"details": "Early iDC(BiP): 3 days GM-CSF and IL-4, BiP 20 μg/ml, mean ±SE"}, "[4]": {"details": "iDC(BiP): 7 days GM-CSF and IL-4, BiP 20 μg/ml, mean ±SE"}, "[5]": {"details": "mDC(BiP), BiP 20 μg/ml, mean fluorescence intensity, up to 7 experiments"}, "[6]": {"details": "mDC(BiP): 7 days GM-CSF and IL-4, LPS final 2 days, BiP 20 μg/ml, mean ±SE"}}, "data": [{"substance": "BiP: 78 kD endoplasmic reticulum chaperone protein as disclosed in WO 00/21995; recombinant human protein", "values": [{"measurement": "IL-8 gene expression", "setting": "[1]", "result": "downregulated the IL-8 gene"}, {"measurement": "% cells CD1a+", "setting": "[2]; [3]", "result": "1 ± 2", "unit": "%"}, {"measurement": "% cells CD11c+", "setting": "[2]; [3]", "result": "81 ± 7", "unit": "%"}, {"measurement": "% cells CD80+", "setting": "[2]; [3]", "result": "36 ± 15", "unit": "%"}, {"measurement": "% cells CD83", "setting": "[2]; [3]", "result": "2. ± 2", "unit": "%"}, {"measurement": "% cells CD86+", "setting": "[2]; [3]", "result": "3 ± 1", "unit": "%"}, {"measurement": "% cells HLA-DR", "setting": "[2]; [3]", "result": "31 ± 7", "unit": "%"}, {"measurement": "% cells CD14", "setting": "[2]; Early iDC(BiP): monocytes 3 days with GM-CSF and IL-4, BiP 20 μg/ml, mean ±SE", "result": "91 ± 6", "unit": "%"}, {"measurement": "MFI CD11c", "setting": "[2]; iDC(BiP), BiP 20 μg/ml, mean fluorescence intensity, up to 7 experiments", "result": "2246 ± 329"}, {"measurement": "% positive cells CD40+85j+", "setting": "[2]; iDC(BiP): 7 days GM-CSF and IL-4, BiP 20 μg/ml", "result": "26±19", "unit": "%"}, {"measurement": "% positive cells CD1a+", "setting": "[2]; [4]", "result": "83 ± 9", "unit": "%"}, {"measurement": "% positive cells CD11c+", "setting": "[2]; [4]", "result": "97 ± 2", "unit": "%"}, {"measurement": "% positive cells CD14+", "setting": "[2]; [4]", "result": "59 ± 22", "unit": "%"}, {"measurement": "% positive cells CD40+", "setting": "[2]; [4]", "result": "28 ± 20", "unit": "%"}, {"measurement": "% positive cells CD80+", "setting": "[2]; [4]", "result": "88 ± 7", "unit": "%"}, {"measurement": "% positive cells CD83+", "setting": "[2]; [4]", "result": "10 ± 5", "unit": "%"}, {"measurement": "% positive cells CD86+", "setting": "[2]; [4]", "result": "31 ± 11", "unit": "%"}, {"measurement": "% positive cells CD210+", "setting": "[2]; [4]", "result": "12 ± 9", "unit": "%"}, {"measurement": "% positive cells HLA-DR+", "setting": "[2]; [4]", "result": "96 ± 2", "unit": "%"}, {"measurement": "maturation as determined by upregulation of CD83 after addition of LPS", "setting": "[2]; mDC(BiP) (FIG. 10C)", "result": "failed to mature"}, {"measurement": "CD40 expression by mDC(BiP)", "setting": "[2]; mDC(BiP) versus mDC", "result": "no difference in CD40 expression"}, {"measurement": "MFI CD1a", "setting": "[2]; [5]", "result": "685 ± 145"}, {"measurement": "MFI CD14", "setting": "[2]; [5]", "result": "366 ± 216"}, {"measurement": "MFI CD80", "setting": "[2]; [5]", "result": "395 ± 31"}, {"measurement": "MFI CD86", "setting": "[2]; [5]", "result": "112 ± 14"}, {"measurement": "MFI HLA-DR", "setting": "[2]; [5]", "result": "1660 ± 167"}, {"measurement": "cell surface expression of CD85j (ILT2)", "setting": "[2]; mDC(BiP), n=4", "result": "87.2±3.5", "unit": "%"}, {"measurement": "% positive cells CD1a+", "setting": "[2]; [6]", "result": "76 ± 14", "unit": "%"}, {"measurement": "% positive cells CD11c+", "setting": "[2]; [6]", "result": "94 ± 5", "unit": "%"}, {"measurement": "% positive cells CD14+", "setting": "[2]; [6]", "result": "57 ± 22", "unit": "%"}, {"measurement": "% positive cells CD40+", "setting": "[2]; [6]", "result": "32 ± 24", "unit": "%"}, {"measurement": "% positive cells CD40+85j+", "setting": "[2]; [6]", "result": "29 ± 23", "unit": "%"}, {"measurement": "% positive cells CD80+", "setting": "[2]; [6]", "result": "91 ± 6", "unit": "%"}, {"measurement": "% positive cells CD83+", "setting": "[2]; [6]", "result": "10 ± 4", "unit": "%"}, {"measurement": "% positive cells CD86+", "setting": "[2]; [6]", "result": "26 ± 9", "unit": "%"}, {"measurement": "% positive cells CD210+", "setting": "[2]; [6]", "result": "19 ± 17", "unit": "%"}, {"measurement": "% positive cells HLA-DR+", "setting": "[2]; [6]", "result": "96 ± 1", "unit": "%"}, {"measurement": "CD14 and CD86 expression on DC cultured in the presence of BiP", "setting": "[2]; mature DC, dose-dependent 0.5-20 μg/ml BiP (FIG. 10B)", "result": "sustained CD14 expression and failed to upregulate CD86"}]}]}
